Measured values taken from ChEMBL document CHEMBL1667745, “Synthesis and antibacterial evaluation of novel clarithromycin derivatives with C-4″ elongated arylalkyl groups against macrolide-resistant strains” (2011).
Converted amounts (≈) assume the structure as drawn.

What was measured:
Type in all cases: functional
[1] = system: Streptococcus pneumoniae; assay: Antimicrobial activity against erythromycin-susceptible Streptococcus pneumoniae ATCC 49619 by broth microdilution method
[2] = system: Streptococcus pneumoniae; assay: Antimicrobial activity against erythromycin-resistant Streptococcus pneumoniae B1 expressing the erm gene by broth microdilution method
[3] = system: Streptococcus pneumoniae; assay: Antimicrobial activity against erythromycin-resistant Streptococcus pneumoniae A22072 expressing the mef gene by broth microdilution method
[4] = system: Streptococcus pneumoniae; assay: Antimicrobial activity against erythromycin-resistant Streptococcus pneumoniae AB11 expressing the erm and mef gene by broth microdilution method
[5] = system: Staphylococcus aureus; assay: Antimicrobial activity against erythromycin-susceptible Staphylococcus aureus ATCC 25923 by broth microdilution method
[6] = system: Staphylococcus aureus; assay: Antimicrobial activity against penicillin-susceptible Staphylococcus aureus P1 by broth microdilution method
[7] = system: Streptococcus pyogenes; assay: Antimicrobial activity against erythromycin-susceptible Streptococcus pyogenes S2 by broth microdilution method
[8] = system: Streptococcus pyogenes; assay: Antimicrobial activity against erythromycin-resistant Streptococcus pyogenes R2 by broth microdilution method

Row | SMILES | MIC [1] | MIC [2] | MIC [3] | MIC [4] | MIC [5] | MIC [6] | MIC [7] | MIC [8]
1 | CC[C@H]1OC(=O)[C@H](C)[C@@H](O[C@H]2C[C@@](C)(OC)[C@@H](OC(=O)NCCCCCC(=O)NCCc3ccc(O)cc3)[C@H](C)O2)[C@H](C)[C@@H](O[C@@H]2O[C@H](C)C[C@H](N(C)C)[C@H]2O)[C@](C)(OC)C[C@@H](C)C(=O)[C@H](C)[C@@H](O)[C@]1(C)O | 0.06 µg/mL (≈ 0.0586 µM) | 64 µg/mL (≈ 62.5 µM) | 8 µg/mL (≈ 7.81 µM) | 64 µg/mL (≈ 62.5 µM) | 0.25 µg/mL (≈ 0.244 µM) | 1 µg/mL (≈ 0.976 µM) | 0.5 µg/mL (≈ 0.488 µM) | 64 µg/mL (≈ 62.5 µM)
2 | CC[C@H]1OC(=O)[C@H](C)[C@@H](O[C@H]2C[C@@](C)(OC)[C@@H](OC(=O)NCCCCCC(=O)NC3CCCCC3)[C@H](C)O2)[C@H](C)[C@@H](O[C@@H]2O[C@H](C)C[C@H](N(C)C)[C@H]2O)[C@](C)(OC)C[C@@H](C)C(=O)[C@H](C)[C@@H](O)[C@]1(C)O | 0.03 µg/mL (≈ 0.0304 µM) | 128 µg/mL (≈ 130 µM) | 1 µg/mL (≈ 1.01 µM) | 128 µg/mL (≈ 130 µM) | 0.25 µg/mL (≈ 0.253 µM) | 1 µg/mL (≈ 1.01 µM) | 0.12 µg/mL (≈ 0.122 µM) | 32 µg/mL (≈ 32.4 µM)
3 | CC[C@H]1OC(=O)[C@H](C)[C@@H](O[C@H]2C[C@@](C)(OC)[C@@H](OC(=O)NCCc3ccccc3)[C@H](C)O2)[C@H](C)[C@@H](O[C@@H]2O[C@H](C)C[C@H](N(C)C)[C@H]2O)[C@](C)(OC)C[C@@H](C)C(=O)[C@H](C)[C@@H](O)[C@]1(C)O | 0.03 µg/mL (≈ 0.0335 µM) | 16 µg/mL (≈ 17.9 µM) | 1 µg/mL (≈ 1.12 µM) | 64 µg/mL (≈ 71.5 µM) | 0.12 µg/mL (≈ 0.134 µM) | 0.06 µg/mL (≈ 0.067 µM) | 0.03 µg/mL (≈ 0.0335 µM) | 0.25 µg/mL (≈ 0.279 µM)
4 | CCCCCNC(=O)CCCCCNC(=O)O[C@H]1[C@H](C)O[C@@H](O[C@H]2[C@H](C)[C@@H](O[C@@H]3O[C@H](C)C[C@H](N(C)C)[C@H]3O)[C@](C)(OC)C[C@@H](C)C(=O)[C@H](C)[C@@H](O)[C@](C)(O)[C@@H](CC)OC(=O)[C@@H]2C)C[C@@]1(C)OC | 0.03 µg/mL (≈ 0.0308 µM) | 128 µg/mL (≈ 131 µM) | 4 µg/mL (≈ 4.11 µM) | 128 µg/mL (≈ 131 µM) | 0.5 µg/mL (≈ 0.513 µM) | 8 µg/mL (≈ 8.21 µM) | 0.25 µg/mL (≈ 0.257 µM) | 16 µg/mL (≈ 16.4 µM)
5 | CC[C@H]1OC(=O)[C@H](C)[C@@H](O[C@H]2C[C@@](C)(OC)[C@@H](OC(=O)NCCCC(=O)NCCc3ccccc3Cl)[C@H](C)O2)[C@H](C)[C@@H](O[C@@H]2O[C@H](C)C[C@H](N(C)C)[C@H]2O)[C@](C)(OC)C[C@@H](C)C(=O)[C@H](C)[C@@H](O)[C@]1(C)O | 0.03 µg/mL (≈ 0.0296 µM) | 32 µg/mL (≈ 31.5 µM) | 1 µg/mL (≈ 0.986 µM) | 32 µg/mL (≈ 31.5 µM) | 0.25 µg/mL (≈ 0.246 µM) | 32 µg/mL (≈ 31.5 µM) | 0.03 µg/mL (≈ 0.0296 µM) | 1 µg/mL (≈ 0.986 µM)
6 | CC[C@H]1OC(=O)[C@H](C)[C@@H](O[C@H]2C[C@@](C)(OC)[C@@H](OC(=O)NCCCCCC(=O)NCc3ccccc3)[C@H](C)O2)[C@H](C)[C@@H](O[C@@H]2O[C@H](C)C[C@H](N(C)C)[C@H]2O)[C@](C)(OC)C[C@@H](C)C(=O)[C@H](C)[C@@H](O)[C@]1(C)O | 0.03 µg/mL (≈ 0.0302 µM) | 64 µg/mL (≈ 64.4 µM) | 2 µg/mL (≈ 2.01 µM) | 64 µg/mL (≈ 64.4 µM) | 0.5 µg/mL (≈ 0.503 µM) | 8 µg/mL (≈ 8.05 µM) | 0.12 µg/mL (≈ 0.121 µM) | 0.25 µg/mL (≈ 0.251 µM)
7 | CC[C@H]1OC(=O)[C@H](C)[C@@H](O[C@H]2C[C@@](C)(OC)[C@@H](OC(=O)NCCCCCC(=O)NCCc3ccccc3Cl)[C@H](C)O2)[C@H](C)[C@@H](O[C@@H]2O[C@H](C)C[C@H](N(C)C)[C@H]2O)[C@](C)(OC)C[C@@H](C)C(=O)[C@H](C)[C@@H](O)[C@]1(C)O | 0.03 µg/mL (≈ 0.0288 µM) | 64 µg/mL (≈ 61.4 µM) | 1 µg/mL (≈ 0.959 µM) | 32 µg/mL (≈ 30.7 µM) | 0.25 µg/mL (≈ 0.24 µM) | 0.5 µg/mL (≈ 0.48 µM) | 0.06 µg/mL (≈ 0.0575 µM) | 64 µg/mL (≈ 61.4 µM)
8 | CC[C@H]1OC(=O)[C@H](C)[C@@H](O[C@H]2C[C@@](C)(OC)[C@@H](OC(=O)NCc3ccc(OC)cc3)[C@H](C)O2)[C@H](C)[C@@H](O[C@@H]2O[C@H](C)C[C@H](N(C)C)[C@H]2O)[C@](C)(OC)C[C@@H](C)C(=O)[C@H](C)[C@@H](O)[C@]1(C)O | 0.03 µg/mL (≈ 0.0329 µM) | 16 µg/mL (≈ 17.6 µM) | 0.25 µg/mL (≈ 0.274 µM) | 32 µg/mL (≈ 35.1 µM) | 0.12 µg/mL (≈ 0.132 µM) | 8 µg/mL (≈ 8.78 µM) | 0.03 µg/mL (≈ 0.0329 µM) | 0.12 µg/mL (≈ 0.132 µM)
9 | CC[C@H]1OC(=O)[C@H](C)[C@@H](O[C@H]2C[C@@](C)(OC)[C@@H](OC(=O)NCCCC(=O)NCc3ccc(OC)cc3)[C@H](C)O2)[C@H](C)[C@@H](O[C@@H]2O[C@H](C)C[C@H](N(C)C)[C@H]2O)[C@](C)(OC)C[C@@H](C)C(=O)[C@H](C)[C@@H](O)[C@]1(C)O | 0.03 µg/mL (≈ 0.0301 µM) | 0.06 µg/mL (≈ 0.0602 µM) | 0.25 µg/mL (≈ 0.251 µM) | 1 µg/mL (≈ 1 µM) | 0.12 µg/mL (≈ 0.12 µM) | 8 µg/mL (≈ 8.03 µM) | 0.03 µg/mL (≈ 0.0301 µM) | 0.5 µg/mL (≈ 0.502 µM)
10 | CCCCCNC(=O)CCCNC(=O)O[C@H]1[C@H](C)O[C@@H](O[C@H]2[C@H](C)[C@@H](O[C@@H]3O[C@H](C)C[C@H](N(C)C)[C@H]3O)[C@](C)(OC)C[C@@H](C)C(=O)[C@H](C)[C@@H](O)[C@](C)(O)[C@@H](CC)OC(=O)[C@@H]2C)C[C@@]1(C)OC | 0.03 µg/mL (≈ 0.0317 µM) | 8 µg/mL (≈ 8.45 µM) | 2 µg/mL (≈ 2.11 µM) | 32 µg/mL (≈ 33.8 µM) | 0.5 µg/mL (≈ 0.528 µM) | 16 µg/mL (≈ 16.9 µM) | 0.5 µg/mL (≈ 0.528 µM) | 16 µg/mL (≈ 16.9 µM)
